Test [1] deals with Escherichia coli. Kind of test: Association of ribosome subunits into 70S ribosome of Escherichia coli MRE600 at 0.1 mM in presence of 4 mM Mg2+. The test is classed as functional.
Test [2] deals with Escherichia coli. The experiment in a line: Association of ribosome subunits into 70S ribosome of Escherichia coli MRE600 in presence of 4 mM Mg2+. In kind it is functional.
Test [3] relates to Escherichia coli. Kind of test: Association of ribosome subunits into 70S ribosome of Escherichia coli MRE600 assessed above 20 uM in the presence of 1 mM Mg2+. In kind it is functional, organism-based.
Test [4] has as its target T1, Translation initiation factor IF-3 (Escherichia coli K-12) (UniProt P0A707).
T1 sequence (whole entry): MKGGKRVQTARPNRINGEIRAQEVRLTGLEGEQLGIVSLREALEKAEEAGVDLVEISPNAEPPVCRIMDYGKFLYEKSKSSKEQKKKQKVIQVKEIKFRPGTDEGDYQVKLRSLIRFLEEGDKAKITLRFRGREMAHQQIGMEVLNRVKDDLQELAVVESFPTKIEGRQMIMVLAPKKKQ
Kind of test: Inhibition of Escherichia coli XL1-Blue IF3 binding to 30S subunit at 100 uM in presence of 8.2 mm Mg2+.

Test [5] concerns Escherichia coli. The experiment in a line: Association of ribosome subunits into 70S ribosome of Escherichia coli MRE600 assessed upto 20 uM in the presence of 1 mM Mg2+. In kind it is functional.
Test [6] deals with Escherichia coli. The experiment in a line: Association of ribosome subunits into 70S ribosome of Escherichia coli MRE600 in presence of 6 mM Mg2+. The test is classed as functional.
The target in test [7] is T1, Translation initiation factor IF-3 (Escherichia coli K-12). Kind of test: Inhibition of Escherichia coli XL1-Blue IF3 antiassociation activity at 0.1 uM in the presence of 8.2 mM Mg2+.

Calls of active or inactive are those of the source. The rule behind the calls is not given here.

For the compound `NC[C@@H]1O[C@H](O[C@H]2[C@@H](O)[C@H](O[C@@H]3[C@@H](O)[C@H](N)C[C@H](N)[C@H]3O[C@H]3O[C@H](CO)[C@@H](O)[C@H](O)[C@H]3N)O[C@@H]2CO)[C@H](N)[C@@H](O)[C@@H]1O` [PAROMOMYCIN], the Activity was determined as 70% with Escherichia coli [1], 40% in the test with Escherichia coli [2], 50% in the test with Escherichia coli [5] and 55% in the test on Escherichia coli [6]. In addition, the outcome (in the test on Escherichia coli [3]; in test [4]) was inactive. The outcome in test [7] was Active.

These data come from ChEMBL document CHEMBL1142166, “Inhibition of antiassociation activity of translation initiation factor 3 by paromomycin” (2007).
